Test results published in ChEMBL document CHEMBL1201862, “PubChem BioAssay data set” (2004).
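Cultured in 96-well plates, cells were exposed to test compound for 48 hours across five concentrations. GI50: concentration for 50% inhibition of growth.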 Calls of active or inactive are those of the source. Cut-off read from the data, not from the text of the source: active = GI50 up to about 1.1 µM and inactive = higher.

Experiments:
Assay in all cases: growth of human tumour cells (NCI), 48 h
786-0 = test system: 786-0
A498 = test system: A498
A549 = test system: A549
ACHN = test system: ACHN
BT-549 = test system: BT-549
CAKI-1 = test system: CAKI-1
COLO 205 = test system: COLO 205
DU-145 = test system: DU-145
EKVX = test system: EKVX
HCT-116 = test system: HCT-116
HCT-15 = test system: HCT-15
HL-60 = test system: HL-60
HOP-62 = test system: HOP-62
HOP-92 = test system: HOP-92
HT-29 = test system: HT-29
Hs-578T = test system: Hs-578T
IGROV-1 = test system: IGROV-1
K562 = test system: K562
KM12 = test system: KM12
LOX IMVI = test system: LOX IMVI
M14 = test system: M14
MCF7 = test system: MCF7
MDA-MB-231 = test system: MDA-MB-231
MDA-MB-435 = test system: MDA-MB-435
MDA-N = test system: MDA-N
MOLT-4 = test system: MOLT-4
Malme-3M = test system: Malme-3M
NCI-H226 = test system: NCI-H226
NCI-H460 = test system: NCI-H460
NCI-H522 = test system: NCI-H522
NCI/ADR-RES = test system: NCI/ADR-RES
OVCAR-3 = test system: OVCAR-3
OVCAR-4 = test system: OVCAR-4
OVCAR-5 = test system: OVCAR-5
OVCAR-8 = test system: OVCAR-8
PC-3 = test system: PC-3
RPMI-8226 = test system: RPMI-8226
RXF 393 = test system: RXF 393
SF-268 = test system: SF-268
SF-295 = test system: SF-295
SF-539 = test system: SF-539
SK-MEL-28 = test system: SK-MEL-28
SK-MEL-2 = test system: SK-MEL-2
SK-MEL-5 = test system: SK-MEL-5
SK-OV-3 = test system: SK-OV-3
SN12C = test system: SN12C
SNB-19 = test system: SNB-19
SNB-75 = test system: SNB-75
SR = test system: SR
SW-620 = test system: SW-620
T47D = test system: T47D
TK-10 = test system: TK-10
U-251 = test system: U-251
UACC-257 = test system: UACC-257
UACC-62 = test system: UACC-62
UO-31 = test system: UO-31

For `OC(c1nc2ccccc2[nH]1)C(O)C(O)C(O)c1nc2ccccc2[nH]1` (stereo unspecified), the GI50 (786-0) was > 100 µM (inactive), the GI50 (A498) was > 100 µM (inactive) and the GI50 (A549) was > 100 µM (inactive). For the same molecule, the GI50 (ACHN) was > 100 µM (inactive), the GI50 (BT-549) was > 100 µM (inactive) and the GI50 (CAKI-1) was > 100 µM (inactive). For the same molecule, the GI50 (COLO 205) was > 100 µM (inactive), the GI50 (DU-145) was > 100 µM (inactive) and the GI50 (EKVX) was > 100 µM (inactive). For the same molecule, the GI50 (HCT-116) was > 100 µM (inactive), the GI50 (HCT-15) was greater than 100 µM and the GI50 (HL-60) was > 100 µM (inactive). The GI50 (HOP-62) was > 100 µM (inactive), the GI50 (HOP-92) was > 100 µM (inactive) and the GI50 (HT-29) was > 100 µM (inactive). For the same molecule, the GI50 (Hs-578T) was 91.4 µM (inactive), the GI50 (IGROV-1) was > 100 µM (inactive) and the GI50 (K562) was > 100 µM (inactive). The GI50 (KM12) was > 100 µM (inactive), the GI50 (LOX IMVI) was > 100 µM (inactive) and the GI50 (M14) was > 100 µM (inactive). The GI50 (MCF7) was > 100 µM (inactive), the GI50 (MDA-MB-231) was > 100 µM (inactive) and the GI50 (MDA-MB-435) was > 100 µM (inactive). For the same molecule, the GI50 (MDA-N) was > 100 µM (inactive), the GI50 (MOLT-4) was > 100 µM (inactive) and the GI50 (Malme-3M) was > 100 µM (inactive). The GI50 (NCI-H226) was > 100 µM (inactive), the GI50 (NCI-H460) was > 100 µM (inactive) and the GI50 (NCI-H522) was > 100 µM (inactive). For the same molecule, the GI50 (NCI/ADR-RES) was > 100 µM (inactive), the GI50 (OVCAR-3) was > 100 µM (inactive) and the GI50 (OVCAR-4) was > 100 µM (inactive). The GI50 (OVCAR-5) was > 100 µM (inactive), the GI50 (OVCAR-8) was > 100 µM (inactive) and the GI50 (PC-3) was > 100 µM (inactive). The GI50 (RPMI-8226) was > 100 µM (inactive), the GI50 (RXF 393) was > 100 µM (inactive) and the GI50 (SF-268) was > 100 µM (inactive). For the same molecule, the GI50 (SF-295) was > 100 µM (inactive), the GI50 (SF-539) was > 100 µM (inactive) and the GI50 (SK-MEL-28) was > 100 µM (inactive). The GI50 (SK-MEL-2) was > 100 µM (inactive), the GI50 (SK-MEL-5) was > 100 µM (inactive) and the GI50 (SK-OV-3) was > 100 µM (inactive). The GI50 (SN12C) was > 100 µM (inactive), the GI50 (SNB-19) was > 100 µM (inactive) and the GI50 (SNB-75) was > 100 µM (inactive). For the same molecule, the GI50 (SR) was > 100 µM (inactive), the GI50 (SW-620) was > 100 µM (inactive) and the GI50 (T47D) was > 100 µM (inactive). For the same molecule, the GI50 (TK-10) was > 100 µM (inactive), the GI50 (U-251) was > 100 µM (inactive) and the GI50 (UACC-257) was > 100 µM (inactive). The GI50 (UACC-62) was > 100 µM (inactive) and the GI50 (UO-31) was > 100 µM (inactive).
